Measurements from publication PMC6920806, “Synthesis of β-D-galactopyranoside-Presenting Glycoclusters, Investigation of Their Interactions with Pseudomonas aeruginosa Lectin A (PA-IL) and Evaluation of Their Anti-Adhesion Potential” (Biomolecules, 2019).
“Also recorded” adds a separate entry of the source. Like-named read-outs stand apart in the source and are kept apart here.

What was measured:
lectin PA-IL [1] = target: T1, lectin PA-IL (Pseudomonas aeruginosa, UniProt Q05097); test: SPR inhibition of PA-IL binding to immobilized D-galactosides; details: for Potency (IC50 of standard/IC50 of inhibitor) / β (Potency/Valency): standard D-galactose
T1 construct: made in house; host or cells: Escherichia coli BL21(DE3)
T1 sequence (Q05097 2-122): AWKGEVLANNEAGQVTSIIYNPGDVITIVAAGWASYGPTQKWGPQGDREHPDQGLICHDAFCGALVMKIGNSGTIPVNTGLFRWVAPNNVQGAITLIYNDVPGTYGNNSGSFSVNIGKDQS
Procedure: Surface plasmon resonance (SPR) experiments were performed on a BIAcore T200 instrument (GE Healthcare, Chicago, IL, USA) at 25 °C, using HBST running buffer (10 mM HEPES, 150 mM NaCl, 0.5 mM CaCl2, 0.05% Tween 20, pH = 7). A CM5 sensor chip (GE Healthcare, Chicago, IL, USA) covered with a carboxymethylated dextran matrix was used for ligand immobilization. The sensor chip surface was activated with N-ethyl-N-(3-dimethylaminopropyl)carbodiimide/N-hydroxysuccinimide solution and then coated with streptavidin (Sigma-Aldrich, St. Louis, MO, USA) in 10 mM acetate pH = 5.0 according to the manufacturer’s standard protocol to a final response of 7000 RU. Unreacted groups were blocked with 1 M ethanolamine-HCl, pH = 8.5. 0.5 mM biotinylated carbohydrate (1:1 mixture of biotin-α-D-galactoside and biotin-β-D-galactoside for measuring channel and α-L-fucoside for blank channel, all Lectinity, Moskow, Russia) was injected into a particular channel at a flow rate of 5 μL min^−1.
In the experimental setup, SPR inhibition measurements were carried out simultaneously on both measuring and blank channels at a flow rate of 5 µL min^−1. […] The response of the blank channel was subtracted from the response of lectin bound to the galactose-modified surface at equilibrium and plotted against the concentration of inhibitor in order to determine IC50 (concentration of inhibitor resulting in 50% inhibition of binding). As IC50 is not a constant and depends on the experimental set-up, a parameter called potency was used for characterization. The potency of a tested inhibitor is the ratio of IC50 of a chosen standard inhibitor (in this case, D-galactose) and the inhibitor in question. Pure lectin PA-IL was used as a control (0% inhibition).

lectin PA-IL [2] = target: T1, lectin PA-IL; test: Analytical ultracentrifugation (sedimentation velocity), cross-linking of lectin; details: for cross-linking of PA-IL (formation of the 6.4 S particle): protein:ligand ratios 1:0.1, 1:1, 1:10; for level of cross-linking (6.4 S octameric species): 1:0.1 protein to ligand ratio, 22 µM PA-IL
Procedure: Analytical ultracentrifugation experiments were performed using ProteomeLab XL-I analytical ultracentrifuge (Beckman Coulter, Indianapolis, IN, USA) equipped with an An-60 Ti rotor. Sedimentation velocity experiments were conducted in titanium double-sector centerpiece cells (Nanolytics Instruments, Potsdam, Germany) loaded with 390 µL of both protein sample and reference solution (PBS buffer, pH = 7.5). PA-IL without the added ligand and PA-IL samples pre-incubated with different concentrations of galactosylated dendrimers 4, 7, 10 and 13 and D-galactose (protein:ligand ratios of 1:0.1, 1:1 and 1:10) were analyzed by the sedimentation velocity experiment. All the measurements were performed in PBS buffer with 22 µM PA-IL. Data were collected using absorbance optics at 25 °C at a rotor speed of 48,000 rpm. Scans were collected at 280 nm (or alternatively at 294 nm to decrease the absorbance signal of the samples containing excess of the UV-absorbing ligands 4 and 10) at 5-min intervals and 0.003 cm spatial resolution in continuous scan mode. The partial specific volume of the protein and the solvent density and viscosity were calculated from the amino acid sequence and buffer composition, respectively, using the software Sednterp (http://bitcwiki.sr.unh.edu). The data were analyzed with the continuous c(s) distribution model implemented in the program Sedfit 15.01b. For the regularization procedure, a confidence level of 0.95 was used. The plots of c(s) distributions were created in GUSSI 1.3.1 [28].

[3] = system: adhesion of P. aeruginosa (ST 1763) to epithelial bronchial cells (CuFi-1); test: Ex vivo bacterial adherence assay: inhibition of P. aeruginosa adhesion to epithelial cells; type: cell-based, Pseudomonas aeruginosa; details: for inhibitory effect on bacterial adhesion compared to the control / bacterial adhesion compared to the untreated control: 2 h incubation; for bacterial adhesion compared to the untreated control: highest concentration (2 mM); for concentrations with significant protecting (anti-adhesion) effect: p < 0.05, Dunnett test
Procedure: Epithelial CuFi-1 cells (an immortalized epithelial cell line derived from cystic fibrosis human lungs, ATCC, Kielpin, Poland) were labelled with PKH67 (Fluorescent Cell Linker Kit, Sigma-Aldrich, St. Louis, MO, USA), a green fluorescent membrane marker, as follows. An aliquot of cell suspension containing 7 × 10^6 cells was washed with PBS buffer and centrifuged (100× g for 5 min). The cell pellet was resuspended in 250 µL of Diluent C (Fluorescent Cell Linker Kit, Sigma-Aldrich, St. Louis, MO, USA). Immediately, an equal volume of 8 µM PKH67 in Diluent C (2 µL of PKH67 in 248 µL of Diluent C) was added to the cell suspension. After 5 min incubation at room temperature with periodic mixing, the staining reaction was stopped by adding an equal volume of 1% Fetal Bovine Serum (FBS, Gibco^TM Invitrogen, Paisley, UK) in PBS. After 1 min incubation with FBS, the suspension was centrifuged (100× g for 10 min). Finally, the cells were washed three times with Bronchial Epithelial Cell Growth Basal Medium (Lonza, Basel, Switzerland), followed by centrifugation (100× g for 5 min).
Pseudomonas aeruginosa strain 1763 (University Hospital Motol, Prague, Czech Republic) was stained with PKH26 (Fluorescent Cell Linker Kit, Sigma-Aldrich, St. Louis, MO, USA), a red fluorescent membrane marker. Bacteria were grown in a suspension culture in PS medium (peptone/casein digest) in an Erlenmeyer flask for 14 h. The culture was washed with PBS buffer and centrifuged (13,400× g for 5 min). The pellet containing 1.5 × 10^9 bacteria was resuspended in 125 µL of Diluent C (Fluorescent Cell Linker Kit, Sigma-Aldrich, St. Louis, MO, USA) and an equal volume of 16 µM PKH26 in Diluent C (2 µL of PKH26 in 123 µL of Diluent C) was added to the bacterial suspension. The bacteria/dye suspension was incubated for 30 min at room temperature with periodic mixing. The staining was quenched by adding an equal volume of 1% BSA (Bovine Serum Albumin, Merck, Kenilworth, NJ, USA) in PBS. The suspension was incubated with BSA for 1 min to allow the binding of excess dye and then centrifuged (15,700× g for 10 min). Bacteria were washed two times with PBS, followed by centrifugation (13,400× g for 7.5 and 5 min).
Epithelial cells CuFi-1 stained with PKH67 were seeded at 8.4 × 10^4 cells/well onto 96-well plates (CellBIND® 96-well Flat Clear Bottom Black Polystyrene Microplates, Corning Incorporated, Corning, NY, USA) and incubated for 42–45 h at 37 °C, 5% CO2 to form a confluent monolayer and regenerate. Prior to the assay, wells were washed with PBS. Compounds 4, 7, 10 and 13 were serially diluted with PBS to the desired concentrations. PKH26-stained bacteria P. aeruginosa were added to the diluted inhibitor solutions. Bacterial suspensions were immediately added to the wells (50 µL/well). The input ratio was about 100 bacteria per epithelial cell (8.4 × 10^6 bacteria/well). A suspension without any inhibitor was used as a control. After 2 h incubation at room temperature, the wells were extensively washed three times with PBS to remove non-adhered bacteria. The fluorescence of adhered P. aeruginosa cells (Ex 522 nm, Em 569 nm for PKH26) on epithelial cells (Ex 470 nm, Em 505 for PKH67) was quantified using the spectrofluorometer Tecan Infinite M200 Pro (Tecan Group Ltd., Männedorf, Switzerland). Results were expressed as a relative fluorescence ratio of P. aeruginosa/CuFi-1. Three independent incubations were performed.

[4] = read-out: IC50 (concentration of inhibitor resulting in 50% inhibition of binding), SPR, PA-IL 45 µM, galactoside-modified chip, 25 °C

COC(=O)c1cc(OCc2cn(CCOCCOCCOCCn3cc(CO[C@@H]4O[C@H](CO)[C@H](O)[C@H](O)[C@H]4O)nn3)nn2)c(OCc2cn(CCOCCOCCOCCn3cc(CO[C@@H]4O[C@H](CO)[C@H](O)[C@H](O)[C@H]4O)nn3)nn2)c(OCc2cn(CCOCCOCCOCCn3cc(CO[C@@H]4O[C@H](CO)[C@H](O)[C@H](O)[C@H]4O)nn3)nn2)c1 [Compound 4]
Potency (IC50 of standard/IC50 of inhibitor) (lectin PA-IL [1]; SPR): 27.5 | β (Potency/Valency) (lectin PA-IL [1]; SPR): 9.2 | IC50 (lectin PA-IL [1]; [4]): 6.8 µM | cross-linking of PA-IL (formation of the 6.4 S particle) (lectin PA-IL [2]): did not form intermolecular cross-links | inhibitory effect on bacterial adhesion compared to the control [3]: no inhibitory effect; also recorded: no visible protective effect

OC[C@H]1O[C@@H](OCc2cn(CCOCCOCCOCCn3cc(COCC(COCc4cn(CCOCCOCCOCCn5cc(CO[C@@H]6O[C@H](CO)[C@H](O)[C@H](O)[C@H]6O)nn5)nn4)(COCc4cn(CCOCCOCCOCCn5cc(CO[C@@H]6O[C@H](CO)[C@H](O)[C@H](O)[C@H]6O)nn5)nn4)COCc4cn(CCOCCOCCOCCn5cc(CO[C@@H]6O[C@H](CO)[C@H](O)[C@H](O)[C@H]6O)nn5)nn4)nn3)nn2)[C@H](O)[C@@H](O)[C@H]1O [Compound 7]
Potency (IC50 of standard/IC50 of inhibitor) (lectin PA-IL [1]; SPR): 25.6 | β (Potency/Valency) (lectin PA-IL [1]; SPR): 6.4 | IC50 (lectin PA-IL [1]; [4]): 7.3 µM | level of cross-linking (6.4 S octameric species) (lectin PA-IL [2]): ~ 30% | cross-linking of PA-IL (formation of the 6.4 S particle) (lectin PA-IL [2]): induced the formation of the 6.4 S particle | inhibitory effect on bacterial adhesion compared to the control [3]: no inhibitory effect; also recorded: no visible protective effect

COC(=O)c1cc(OCc2cn(CCn3cc(CO[C@@H]4O[C@H](CO)[C@H](O)[C@H](O)[C@H]4O)nn3)nn2)c(OCc2cn(CCn3cc(CO[C@@H]4O[C@H](CO)[C@H](O)[C@H](O)[C@H]4O)nn3)nn2)c(OCc2cn(CCn3cc(CO[C@@H]4O[C@H](CO)[C@H](O)[C@H](O)[C@H]4O)nn3)nn2)c1 [Compound 10]
IC50 (lectin PA-IL [1]): 7.4 µM | Potency (IC50 of standard/IC50 of inhibitor) (lectin PA-IL [1]; SPR): 25.3 | β (Potency/Valency) (lectin PA-IL [1]; SPR): 8.4 | level of cross-linking (6.4 S octameric species) (lectin PA-IL [2]): ~ 15% | cross-linking of PA-IL (formation of the 6.4 S particle) (lectin PA-IL [2]): induced the formation of the 6.4 S particle | lower concentrations resulting in statistically significantly increased fluorescent signal (adhered bacteria) [3]: ≤ 125 µM | bacterial adhesion compared to the untreated control [3]: approximately 32% | concentrations with significant protecting (anti-adhesion) effect [3]: ≥ 1 mM

OC[C@H]1O[C@@H](OCc2cn(CCn3cc(COCC(COCc4cn(CCn5cc(CO[C@@H]6O[C@H](CO)[C@H](O)[C@H](O)[C@H]6O)nn5)nn4)(COCc4cn(CCn5cc(CO[C@@H]6O[C@H](CO)[C@H](O)[C@H](O)[C@H]6O)nn5)nn4)COCc4cn(CCn5cc(CO[C@@H]6O[C@H](CO)[C@H](O)[C@H](O)[C@H]6O)nn5)nn4)nn3)nn2)[C@H](O)[C@@H](O)[C@H]1O [Compound 13]
IC50 (lectin PA-IL [1]; [4]): 4.3 µM | level of cross-linking (6.4 S octameric species) (lectin PA-IL [2]): ~ 15% | cross-linking of PA-IL (formation of the 6.4 S particle) (lectin PA-IL [2]): induced the formation of the 6.4 S particle | lower concentrations resulting in statistically significantly increased fluorescent signal (adhered bacteria) [3]: ≤ 125 µM | bacterial adhesion compared to the untreated control [3]: ~42% | concentrations with significant protecting (anti-adhesion) effect [3]: ≥ 1 mM
